Experiments:
Assay in all cases: NCI-60 single-dose screen
Type in all cases: cell-based
T-47D = conditions: Homo sapiens, T47D, single dose 10 µM, '-' = no inhibition, read-out: % Growth Inhibition
Experimental: (§1) The National Cancer Institute’s Developmental Therapeutic Program (www.dtp.nci.nih.gov) has tested compounds 9–29 (except compounds 21 and 22) against 60 cancer cell lines from nine types (leukemia, lung, colon, CNS, melanoma, ovarian, renal, prostate, and breast cancer) at a single dose (10 μM) ([El-Sherief et al., 2018]). […] The most sensitive cells included leukemia (SR, K-562, and MOLT-4), lung (NCI-H522, […], and EKVX), breast (MCF-7 and T-47D), colon (HCT-15 and HT-29), and ovarian (NCI/ADR-RES).
(§2) The National Cancer Institute’s Developmental Therapeutic Program (www.dtp.nci.nih.gov) evaluated compounds 9–29 (excluding 21 and 22) against 60 cancer cell lines from nine categories (leukemia, lung, colon, CNS, melanoma, ovarian, renal, prostate, and breast cancer) at a single dose (10 μM) ([El-Sherief et al., 2018]). See Supplementary Material A1 for more details.

OVCAR-5 = conditions: Homo sapiens, single dose 10 µM, '-' = no inhibition, read-out: % Growth Inhibition
Experimental: as §1, §2

NCI-H460 = conditions: Homo sapiens, single dose 10 µM, '-' = no inhibition, read-out: % Growth Inhibition
Experimental: as §1, §2

DU-145 = conditions: Homo sapiens, single dose 10 µM, '-' = no inhibition, read-out: % Growth Inhibition
Experimental: as §1, §2

MDA-MB-468 = conditions: Homo sapiens, single dose 10 µM, '-' = no inhibition, read-out: % Growth Inhibition
Experimental: as §1, §2

U251 = conditions: Homo sapiens, U-251, single dose 10 µM, '-' = no inhibition, read-out: % Growth Inhibition
Experimental: as §1, §2

SK-MEL-2 = conditions: Homo sapiens, single dose 10 µM, '-' = no inhibition, read-out: % Growth Inhibition
Experimental: as §1, §2

M14 = conditions: Homo sapiens, single dose 10 µM, '-' = no inhibition, read-out: % Growth Inhibition
Experimental: as §1, §2

OVCAR-4 = conditions: Homo sapiens, single dose 10 µM, '-' = no inhibition, read-out: % Growth Inhibition
Experimental: as §1, §2

SW-620 = conditions: Homo sapiens, single dose 10 µM, '-' = no inhibition, read-out: % Growth Inhibition
Experimental: as §1, §2

HOP-62 = conditions: Homo sapiens, single dose 10 µM, '-' = no inhibition, read-out: % Growth Inhibition
Experimental: as §1, §2

BT-549 = conditions: Homo sapiens, single dose 10 µM, '-' = no inhibition, read-out: % Growth Inhibition
Experimental: as §1, §2

EKVX = conditions: Homo sapiens, single dose 10 µM, '-' = no inhibition, read-out: % Growth Inhibition
Experimental: as §1, §2

HCT-116 = conditions: Homo sapiens, single dose 10 µM, '-' = no inhibition, read-out: % Growth Inhibition
Experimental: as §1, §2

A549/ATCC = conditions: Homo sapiens, single dose 10 µM, '-' = no inhibition, read-out: % Growth Inhibition
Experimental: as §1, §2

786-0 = conditions: Homo sapiens, single dose 10 µM, '-' = no inhibition, read-out: % Growth Inhibition
Experimental: as §1, §2

SK-MEL-28 = conditions: Homo sapiens, single dose 10 µM, '-' = no inhibition, read-out: % Growth Inhibition
Experimental: as §1, §2

HCC-2998 = conditions: Homo sapiens, single dose 10 µM, '-' = no inhibition, read-out: % Growth Inhibition
Experimental: as §1, §2

A498 = conditions: Homo sapiens, single dose 10 µM, '-' = no inhibition, read-out: % Growth Inhibition
Experimental: as §1, §2

CCRF-CEM = conditions: Homo sapiens, single dose 10 µM, '-' = no inhibition, read-out: % Growth Inhibition
Experimental: as §1, §2

K-562 = conditions: Homo sapiens, K562, single dose 10 µM, '-' = no inhibition, read-out: % Growth Inhibition
Experimental: as §1, §2

SNB-75 = conditions: Homo sapiens, single dose 10 µM, '-' = no inhibition, read-out: % Growth Inhibition
Experimental: as §1, §2

UACC-257 = conditions: Homo sapiens, single dose 10 µM, '-' = no inhibition, read-out: % Growth Inhibition
Experimental: as §1, §2

RPMI-8226 = conditions: Homo sapiens, single dose 10 µM, '-' = no inhibition, read-out: % Growth Inhibition
Experimental: as §1, §2

RXF 393 = conditions: Homo sapiens, single dose 10 µM, '-' = no inhibition, read-out: % Growth Inhibition
Experimental: as §1, §2

SF-295 = conditions: Homo sapiens, single dose 10 µM, '-' = no inhibition, read-out: % Growth Inhibition
Experimental: as §1, §2

HT29 = conditions: Homo sapiens, HT-29, single dose 10 µM, '-' = no inhibition, read-out: % Growth Inhibition
Experimental: as §1, §2

COLO 205 = conditions: Homo sapiens, single dose 10 µM, '-' = no inhibition, read-out: % Growth Inhibition
Experimental: as §1, §2

IGROV1 = conditions: Homo sapiens, IGROV-1, single dose 10 µM, '-' = no inhibition, read-out: % Growth Inhibition
Experimental: as §1, §2

SF-539 = conditions: Homo sapiens, single dose 10 µM, '-' = no inhibition, read-out: % Growth Inhibition
Experimental: as §1, §2

NCI-H23 = conditions: Homo sapiens, single dose 10 µM, '-' = no inhibition, read-out: % Growth Inhibition
Experimental: as §1, §2

ACHN 1 = conditions: Homo sapiens, single dose 10 µM, '-' = no inhibition, read-out: % Growth Inhibition
Experimental: as §1, §2

HS 578T = conditions: Homo sapiens, single dose 10 µM, '-' = no inhibition, read-out: % Growth Inhibition
Experimental: as §1, §2

SN12C = conditions: Homo sapiens, single dose 10 µM, '-' = no inhibition, read-out: % Growth Inhibition
Experimental: as §1, §2

SK-MEL-5 = conditions: Homo sapiens, single dose 10 µM, '-' = no inhibition, read-out: % Growth Inhibition
Experimental: as §1, §2

NCI-H322M = conditions: Homo sapiens, single dose 10 µM, '-' = no inhibition, read-out: % Growth Inhibition
Experimental: as §1, §2

SR = conditions: Homo sapiens, single dose 10 µM, '-' = no inhibition, read-out: % Growth Inhibition
Experimental: as §1, §2

HL-60(TB) = conditions: Homo sapiens, single dose 10 µM, '-' = no inhibition, read-out: % Growth Inhibition
Experimental: as §1, §2

PC-3 = conditions: Homo sapiens, single dose 10 µM, '-' = no inhibition, read-out: % Growth Inhibition
Experimental: as §1, §2

MDA-MB-435 = conditions: Homo sapiens, single dose 10 µM, '-' = no inhibition, read-out: % Growth Inhibition
Experimental: as §1, §2

MALME-3M = conditions: Homo sapiens, single dose 10 µM, '-' = no inhibition, read-out: % Growth Inhibition
Experimental: as §1, §2

OVCAR-8 = conditions: Homo sapiens, single dose 10 µM, '-' = no inhibition, read-out: % Growth Inhibition
Experimental: as §1, §2

SK-OV-3 = conditions: Homo sapiens, single dose 10 µM, '-' = no inhibition, read-out: % Growth Inhibition
Experimental: as §1, §2

HOP-92 = conditions: Homo sapiens, single dose 10 µM, '-' = no inhibition, read-out: % Growth Inhibition
Experimental: as §1, §2

SF-268 = conditions: Homo sapiens, single dose 10 µM, '-' = no inhibition, read-out: % Growth Inhibition
Experimental: as §1, §2

MCF7 = conditions: Homo sapiens, single dose 10 µM, '-' = no inhibition, read-out: % Growth Inhibition
Experimental: as §1, §2

TK-10 = conditions: Homo sapiens, single dose 10 µM, '-' = no inhibition, read-out: % Growth Inhibition
Experimental: as §1, §2

KM12 = conditions: Homo sapiens, single dose 10 µM, '-' = no inhibition, read-out: % Growth Inhibition
Experimental: as §1, §2

## COc1ccc(CSc2nc(-c3ccc(Cl)cc3)cc(-c3ccc(OC)cc3)n2)cc1 [Compound 15, 2-(4-Methoxybenzylthio)-4-(4-chlorophenyl)-6-(4-methoxyphenyl)pyrimidine]
T-47D
  inhibition at 10 µM: < 0%
OVCAR-5
  inhibition at 10 µM: < 0%
NCI-H460
  inhibition at 10 µM: < 0%
DU-145
  inhibition at 10 µM: 0.47%
MDA-MB-468
  inhibition at 10 µM: < 0%
U251
  inhibition at 10 µM: < 0%
SK-MEL-2
  inhibition at 10 µM: < 0%
M14
  inhibition at 10 µM: < 0%
OVCAR-4
  inhibition at 10 µM: < 0%
SW-620
  inhibition at 10 µM: < 0%
HOP-62
  inhibition at 10 µM: < 0%
BT-549
  inhibition at 10 µM: < 0%
EKVX
  inhibition at 10 µM: < 0%
HCT-116
  inhibition at 10 µM: < 0%
A549/ATCC
  inhibition at 10 µM: < 0%
786-0
  inhibition at 10 µM: < 0%
SK-MEL-28
  inhibition at 10 µM: < 0%
HCC-2998
  inhibition at 10 µM: < 0%
A498
  inhibition at 10 µM: < 0%
CCRF-CEM
  inhibition at 10 µM: < 0%
K-562
  inhibition at 10 µM: 12.8%
SNB-75
  inhibition at 10 µM: < 0%
UACC-257
  inhibition at 10 µM: < 0%
RPMI-8226
  inhibition at 10 µM: < 0%
RXF 393
  inhibition at 10 µM: < 0%
SF-295
  inhibition at 10 µM: < 0%
HT29
  inhibition at 10 µM: 4.35%
COLO 205
  inhibition at 10 µM: 2.89%
IGROV1
  inhibition at 10 µM: < 0%
SF-539
  inhibition at 10 µM: < 0%
NCI-H23
  inhibition at 10 µM: 4.6%
ACHN 1
  inhibition at 10 µM: 15.8%
HS 578T
  inhibition at 10 µM: 9.27%
SN12C
  inhibition at 10 µM: 11.3%
SK-MEL-5
  inhibition at 10 µM: < 0%
NCI-H322M
  inhibition at 10 µM: < 0%
SR
  inhibition at 10 µM: 8.9%
HL-60(TB)
  inhibition at 10 µM: 3.01%
PC-3
  inhibition at 10 µM: 17.5%
MDA-MB-435
  inhibition at 10 µM: 2.38%
MALME-3M
  inhibition at 10 µM: < 0%
OVCAR-8
  inhibition at 10 µM: 1.69%
SK-OV-3
  inhibition at 10 µM: < 0%
HOP-92
  inhibition at 10 µM: < 0%
SF-268
  inhibition at 10 µM: < 0%
MCF7
  inhibition at 10 µM: < 0%
TK-10
  inhibition at 10 µM: < 0%
KM12
  inhibition at 10 µM: < 0%

## COc1ccc(-c2cc(-c3cccc(OC)c3)nc(SC)n2)cc1 [Compound 16, 6-(3-Methoxyphenyl)-4-(4-methoxyphenyl)-2-(methylthio)pyrimidine]
T-47D
  inhibition at 10 µM: 22.2%
OVCAR-5
  inhibition at 10 µM: < 0%
NCI-H460
  inhibition at 10 µM: 1.75%
DU-145
  inhibition at 10 µM: 6.56%
MDA-MB-468
  inhibition at 10 µM: 17.4%
U251
  inhibition at 10 µM: 10.7%
SK-MEL-2
  inhibition at 10 µM: 2.91%
M14
  inhibition at 10 µM: < 0%
OVCAR-4
  inhibition at 10 µM: 8.29%
SW-620
  inhibition at 10 µM: 1.89%
HOP-62
  inhibition at 10 µM: 1.53%
BT-549
  inhibition at 10 µM: 3.3%
EKVX
  inhibition at 10 µM: 21.7%
HCT-116
  inhibition at 10 µM: 17.3%
A549/ATCC
  inhibition at 10 µM: 13%
786-0
  inhibition at 10 µM: < 0%
SK-MEL-28
  inhibition at 10 µM: < 0%
HCC-2998
  inhibition at 10 µM: < 0%
A498
  inhibition at 10 µM: < 0%
CCRF-CEM
  inhibition at 10 µM: 8.85%
K-562
  inhibition at 10 µM: 26.9%
SNB-75
  inhibition at 10 µM: < 0%
UACC-257
  inhibition at 10 µM: < 0%
RPMI-8226
  inhibition at 10 µM: 3.81%
RXF 393
  inhibition at 10 µM: 11.6%
SF-295
  inhibition at 10 µM: 4.05%
HT29
  inhibition at 10 µM: 26.2%
COLO 205
  inhibition at 10 µM: < 0%
IGROV1
  inhibition at 10 µM: < 0%
SF-539
  inhibition at 10 µM: < 0%
NCI-H23
  inhibition at 10 µM: 2.58%
ACHN 1
  inhibition at 10 µM: < 0%
HS 578T
  inhibition at 10 µM: 5.45%
SN12C
  inhibition at 10 µM: 17.9%
SK-MEL-5
  inhibition at 10 µM: 6.46%
NCI-H322M
  inhibition at 10 µM: < 0%
SR
  inhibition at 10 µM: 27.7%
HL-60(TB)
  inhibition at 10 µM: 22.2%
PC-3
  inhibition at 10 µM: 16.6%
MDA-MB-435
  inhibition at 10 µM: 6.06%
MALME-3M
  inhibition at 10 µM: < 0%
OVCAR-8
  inhibition at 10 µM: 6.48%
SK-OV-3
  inhibition at 10 µM: 13.7%
HOP-92
  inhibition at 10 µM: 1.87%
SF-268
  inhibition at 10 µM: 15.7%
MCF7
  inhibition at 10 µM: 11.3%
TK-10
  inhibition at 10 µM: < 0%
KM12
  inhibition at 10 µM: 6.2%
